According to patent publication US20220356163A1, “SMALL MOLECULE INHIBITORS OF Id PROTEINS” (MEMORIAL SLOAN KETTERING CANCER CENTER, priority 2019, published 2022):

Key:
Id1 (59-104) = target: T1, Id1 (59-104) (Mus musculus, UniProt P20067); assay: UV crosslinking of AGX51-XL2 to purified Id1 with mass spectrometry; format: binding; conditions: 10-fold excess of AGX51
T1 construct: 1 μg of purified Id1 (a.a.59-104) and 19.7 ng of AGX51-XL2; made in house; host or cells: E. coli Rosetta 2(DE3)
Method: Covalent binding of AGX51 derivative to Id1. An analog of AGX51 (AGX51-XL2) was used which contains a benzophenone photoreactive moiety. 1 μg of purified Id1 (a.a.59-104) and 19.7 ng of AGX51-XL2 (dissolved in DMSO) were combined, in the dark, and then exposed to UV light for 20 minutes, a negative control without UV exposure was also included. The samples were then run in the dark on a 15% denaturing gel, silver stained according to the manufacturers protocol (SilverQuest Staining Kit, Invitrogen, Grand Island, N.Y., USA) and bands were excised for mass spectrometry as described below.
In-gel digestion for mass spectrometry. In-gel digestion was performed using the method by Shevchenko et al. (Nat Protoc 1(6):2856-60 (2006)). Briefly, gel bands were excised, washed with 1:1 (Acetonitrile: 100 mM ammonium bicarbonate) for 30 minutes, dehydrated with 100% acetonitrile for 10 minutes until gel slices shrunk and excess acetonitrile was removed and slices were dried in a speed-vac for 10 minutes without heat. Gel slices were reduced with 5 mM DTT for 30 minutes at 56° C. in a thermostated mixer with gentle mixing, removed, allowed to cool to room temperature then alkylated with 11 mM IAA for 30 minutes in the dark. Gel slices were washed with 100 mM ammonium bicarbonate and 100% acetonitrile for 10 minutes each. […]

HCT116 cells = assay: HCT116 MTT viability, cell cycle and Cyclin D1; format: cell-based; conditions: HCT116, 40 μM
Method: Immunoblotting. For immunoblotting, cells were collected by trypsinization, washed with PBS and lysed in homogenization buffer (0.3 M sucrose, 10 mM Tris (pH 8.0), 400 mM sodium chloride, 3 mM magnesium chloride, 0.5% NP40/IGEPAL, 100 μg/mL Aprotinin+Protease inhibitor cocktail (Roche #11 836 153 001). Proteins were separated by SDS-PAGE, transferred to a membrane (LI-COR), probed with primary antibodies overnight at 4° C., and probed with secondary antibodies (LI-COR) for 1-2 hours at room temperature. Proteins were visualized using the LI-COR Odyssey Infrared Imaging detection system. The following primary antibodies were used Id1, Id2, Id3, Id4 (195-14, 9-2-8, 17-3, 82-12, respectively, all from Biocheck), Cyclin D1 (2978, Cell Signaling), Actin (A2066, Sigma), Tubulin (T4026, Sigma). Western blot quantification was carried out using channel 700 and channel 800 intensity data from Odyssey application software version 3.0.30 (LI-COR), subtracting blank values and normalizing to Tubulin.
Cell viability assays. Cell lines were seeded in a 96 well plate (5000 cells per well). After overnight incubation, cells were treated with AGX51 and incubated for 24 hours then MTT reagent (5 mg/mL) was added per well and the cells were incubated for four hours. Following incubation, media was aspirated and 200 μL DMSO was added per well. Absorbance was then measured at 570 nm using a plate reader (Synergy 2, BioTek). Cell growth profiles were determined by seeding 38,000 cells in a 24-well plate, in triplicate for each time point, and counting the cells on days 1, 3 and 5 after seeding, using trypan blue exclusion of dead cells.
Cell cycle analysis. […] For cell cycle analysis cells were centrifuged 1000 rpm for 5 minutes, washed with 1×PBS and then resuspended in 0.5 mL PI/RNase staining buffer (550825, BD Biosciences), incubated for 15 minutes at room temperature and analyzed by flow cytometry (LSR II).

colon tumors = assay: Azoxymethane (AOM) colon tumor model; format: in vivo, mouse; conditions: 15 mg/kg i.p. for three weeks
Method: Spontaneous colon tumors will be induced by treating 30, 4-week old male A/J mice (Jackson Laboratory) with AOM (10 mg/kg; Sigma Aldrich) once a week by i.p. injection for 6 weeks. Mice will be maintained on AIN-93G purified diet (Research Diets) for the duration of the experiment. After a three-week treatment break mice will be treated i.p. for three weeks with DMSO, AGX51 (15 mg/kg) or a compound of the present technology (e.g., AGX-A; 15 mg/kg). Following the last injection, the mice will be euthanized and colon tumors will be formalin fixed to assess tumor burden. Tumor numbers and size will be determined in whole mounts of the tissues following methylene blue staining. For aid in future comparison with a compound of the present technology, the study was initially performed with DMSO and AGX51 where exemplary data of effects of AGX51 on sporadic tumor is shown FIGS. 35A-35D.

T1 sequence (P20067 59-104): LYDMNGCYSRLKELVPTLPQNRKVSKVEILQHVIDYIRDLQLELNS

## CCC(=O)N(CCC(c1ccc2c(c1)OCO2)c1ccccc1OC)Cc1ccccc1 (racemic) [AGX51, N-(3-(benzo[d][1,3]dioxol-5-yl)-3-(2-methoxyphenyl)propyl)-N-benzylpropionamide]
Id1 (59-104)
  AGX51-XL2 binding to Id1 in presence of competitor: significant decrease in AGX51-XL2 binding to Id1
HCT116 cells; 0-48 hours
  Cyclin D1 levels: reduction in Cyclin D1 levels
HCT116 cells; 4-24 hours
  cell cycle: G0/G1 growth arrest
HCT116 cells; 24 hours
  cell viability: reduced cell viability
Colon tumors; p=0.008
  number of colon tumors: significant decrease in the number of colon tumors
Colon tumors; significant for tumors >3 mm (p=0.004)
  colon tumor size vs DMSO group: smaller than those in the DMSO group
